Laboratory results as given in patent US20250312378A1, “COMPOSITION COMPRISING ANTI-FOLIC ACID AGENT FOR DIFFERENTIATION OF MESENCHYMAL STEM CELL INTO CARTILAGE” (EWHA UNIVERSITY-INDUSTRY COLLABORATION FOUNDATION, priority 2021, published 2025).

Assays:
[1] = test system: COL II; assay: Screening of COL II mRNA expression under 3D culture conditions (FIG. 4B); format: cell-based, Human; conditions: 0.1 μM
Experimental: Various antifolates were screened to evaluate their effects on cell proliferation and viability and their chondrogenic potential. The antifolates used were dapsone (1), methotrexate (2), pemetrexed (3), pralatrexate (4), proguanil (5), pyrimethamine (6), and trimethoprim (7). Stem cells loaded in a PEG-PA thermogel scaffold containing each antifolate or KGN were cultured in a DMEM growth medium containing FBS (10.0% v/v) for 21 days. A control experiment was performed under the same conditions, except that no antifolate was added.
Expression of chondrogenic biomarkers was investigated in the presence of antifolates. The expression of COL II, the most widely used biomarker for chondrogenic differentiation of stem cells, was investigated at the mRNA level (FIG. 4B).

[2] = test system: COL II; assay: COL II mRNA expression by qPCR in TMSCs in PEG-PA 3D matrix; format: cell-based, Human; conditions: 0.1 μM; for COL II mRNA level compared to control system, day 14: day 14, vs control system containing no antifolate; for COL II expression level compared to control system (day not given): vs control system, time point not given
Text: (§1) Based on the screening results obtained in Example 3, dapsone (1), pralatrexate (4), and trimethoprim (7) were selected as antifolate candidates.
(§2) Human TMSCs used as stem cells were donated from Ewha Womans University Mokdong Hospital (Seoul, Korea). The cells were isolated from a donor after tonsillectomy in compliance with the ethical guidelines of the University. DMEM (Corning, USA) containing 10.0% (v/v) fetal bovine serum (FBS, Corning, USA), 1.0% (v/v) penicillin/streptomycin (PS, Corning, USA) and 1.0% (v/v) […] (AA, Corning, USA) was used as a growth medium, and the isolated human TMSCs were cultured using the growth medium in traditional polystyrene culture dishes at 37° C. under 5% CO2 atmosphere. Then, the stem cells (passage 7, 0.5×10^6 cells/well) were mixed with the aqueous PEG-PA solution (10.0 wt % in growth medium) containing an antifolate or KGN at 20° C. A system containing no antifolate or KGN was used as a control. The TMSC-suspended solution was injected into a 24-well culture plate (0.2 ml/well) at 37° C. to form a hydrogel matrix. The medium was replaced every 3 days during a 3D culture period of 21 days, and each experiment was performed in triplicate.
(§3) Chondrogenic differentiation of TMSCs was investigated at the mRNA and protein levels of chondrogenic biomarkers such as COL II, SOX 9, and ACAN. Gene expression levels were determined compared to that of a control system containing no antifolate using equal amounts of cDNA. COL I, an osteogenic biomarker, was also used to determine whether osteogenic differentiation occurred when an antifolate was used.
(§4) Specifically, after 0, 14, and 21 days of 3D culture, mRNA was extracted from the cells in the thermogel by using a TRIZOL™ reagent (Invitrogen, USA) according to the manufacturer's protocol, and the mRNA concentration was assayed by a Nano Drop 2000 spectrometer (Thermo Scientific, USA). Equal amounts of cDNA were used in qPCR to determine gene expression levels compared to that of the control system containing no antifolate. Then, total cDNA was synthesized using a ReverTra Ace® qPCR RT kit (Toyobo, Japan), and mRNA expression levels were measured using a CFX96™ real-time RT-PCR system (Bio-Rad, USA) and an iQ™ SYBR® Green Supermix solution (Bio-Rad, USA). The relative expression levels of target genes were calculated as 2^−ΔΔCt by the following calculation equation: ΔΔCt=(gene A−GAPDH)t−(gene A−GAPDH)0. Here, the subscript 0 refers to data on day 0 (3 hours). The primer sequences used for amplification are shown in Table 1 below, and each test value was determined as the mean value of triplicate determinations.

[3] = test system: ACAN; assay: ACAN mRNA expression by qPCR in TMSCs in PEG-PA 3D matrix; format: cell-based, Human; conditions: 0.1 μM; for ACAN expression level on day 14 compared to control system: day 14, vs control system containing no antifolate; for ACAN mRNA level on day 14 compared to day 0: day 14 vs day 0 (3 hours after start of culture)
Text: as §1, §2, §3
as §4, with “[…],” for “after 0, 14, and 21 days of 3D culture,”

[4] = In vitro drug release from PEG-PA thermogel into PBS (HPLC); format: physicochemical; conditions: from PEG-PA thermogel (10.0 wt %) into PBS, 37° C.
Experimental: The drug release profile of the thermogel was determined in vitro. […] The temperature of the polymer solution containing the drug was increased to 37° C. to cause a sol-gel transition. After 30 minutes, phosphate-buffered saline (PBS) (1.2 mL, 37° C.) was added thereto, and the mixture was placed in a shaking thermostatic bath with 40 strokes/min at 37° C. PBS was replaced at specific sampling intervals. The drug released into the medium, PBS, was analyzed by a high-performance liquid chromatography system (HPLC; Waters 1525B, USA) equipped with a photodiode detector (Waters 2998, USA) and a Jupiter@5 μm C18 300A LC column (Phenomenex, USA). As a mobile phase, a mixed solvent of methanol/water (40/60 v/v) containing trifluoroacetic acid (0.1%) was used for dapsone, pralatrexate and trimethoprim, and a mixed solvent of acetonitrile/water (35/65 v/v) containing formic acid (0.1%) was used for KGN. The flow rate was set at 1.0 ml/min. The amount of drug released was analyzed at 260 nm for dapsone, 307 nm for pralatrexate, 287 nm for trimethoprim, and 274 nm for KGN, and was determined as the mean value of triplicate determinations.

[5] = test system: SOX 9; assay: SOX 9 protein expression by immunofluorescence assay; format: cell-based, Human; conditions: 0.1 μM, 14 days 3D culture
Experimental: (§5) Protein expression for COL II, SOX 9, ACAN and COL I was investigated using immunofluorescence assay for stem cells cultured for 14 days. Specifically, TMSCs, which were 3D cultured with antifolates or KGN for 14 days and then encapsulated in thermogel scaffolds, were fixed with 4.0% paraformaldehyde (PFA) for 12 hours and quickly frozen at −70° C. Then, the thermogels were cryosectioned to a thickness of 10 μm using CM1850 (Leica, Germany). All the samples were treated with Triton (0.25% v/v in PBS), and then blocked with bovine serum albumin (1.0% w/v in PBS), and treated with anti-COL II, anti-SOX 9, anti-ACAN, and anti-COL I primary antibodies. Next, the samples were washed with PBS and treated with the following secondary antibodies: goat anti-mouse IgG H&L Alexa Fluor®594 for COL II and ACAN, and goat anti-rabbit IgG H&L Alexa Fluor®594 for SOX 9 and COL I. All the antibodies were purchased from Abcam (USA) and tested according to the manufacturer's protocol. In addition, each sample was stained for nuclei and F-actin with DAPI (Molecular probes, USA) and phalloidin (PHD) (Abcam, USA), respectively. Images were obtained using an Olympus IX71 fluorescence microscope and Olympus DP2-BSW software.
(§6) For immunofluorescence assay, the cell nucleus and actin were stained blue and green with DAPI and PHD, respectively, and the antibodies for each protein were stained red.

[6] = test system: ACAN; assay: ACAN protein expression by immunofluorescence assay; format: cell-based, Human; conditions: 0.1 μM, 14 days 3D culture
Experimental: as §5, §6

[7] = test system: CBFβ; assay: Nuclear translocation of CBFβ in TMSCs by Western blot; format: cell-based, Human; conditions: serum-free growth medium after overnight starvation
Text: Filamin A is an actin-binding protein that regulates the cytoskeletal network involved in chondrogenic differentiation. When KGN binds to filamin A in the cytosol, the interaction between filamin A and CBFβ is broken, and when the dissociated CBFβ enters the nucleus, CBFβ regulates RUNX1, thereby promoting differentiation of MSCs into chondrocytes. Whether the antifolate can be involved in this mechanism and regulate chondrogenic differentiation-related factors was examined by Western blot analysis and immunofluorescence assay.
Specifically, for Western blot analysis, stem cells (TMSCs) were starved overnight and then treated with each antifolate or KGN in serum-free growth medium. Then, cytosolic and nuclear proteins of the TMSCs were obtained using a nuclear/cytosolic fractionation kit (Cell Biolabs Inc., USA) and total protein was obtained using a cell extraction buffer (Invitrogen, USA) containing a protease inhibitor and phenyl methane sulfonyl fluoride (1.0 mM). Each of the cytosolic and nuclear proteins was loaded, detected with anti-CBFβ primary antibody (Cell Signaling Technology, USA), and then treated with anti-rabbit IgG HRP-conjugated secondary antibody (Cell Signaling Technology, USA) and incubated. Then, the proteins were visualized with an enhanced chemiluminescence substrate (Bio-rad, USA) using an Amersham Imager 600 (GE, UK).

[8] = test system: RUNX1; assay: RUNX1 immunofluorescence in TMSCs; format: cell-based, Human; conditions: serum-free growth medium after overnight starvation
Experimental: For immunofluorescence assay, stem cells were starved overnight and then treated with each antifolate or KGN in serum-free growth medium. Each cell was treated with bovine serum albumin (1.0% w/v in PBS), and then treated with anti-CBFβ primary antibody (Abcam, USA) and anti-RUNX1 primary antibody (Santa Cruz Biotechnology, USA) and incubated. The cells were treated with anti-rabbit IgG H&L secondary antibodies (Abcam, USA) and anti-mouse IgG H&L secondary antibodies (Abcam, USA) against CBFβ and RUNX1, respectively. The cell nuclei were stained with DAPI (Molecular probes, USA), and each image was obtained using an Olympus IX71 fluorescence microscope and Olympus DP2-BSW software.

[9] = test system: SOX 9; assay: SOX 9 mRNA expression by qPCR in TMSCs in PEG-PA 3D matrix; format: cell-based, Human; conditions: 0.1 μM
Text: as §1, §2, §3
as §4, with “[…],” for “after 0, 14, and 21 days of 3D culture,”

[10] = test system: COL II; assay: COL II protein expression by immunofluorescence assay; format: cell-based, Human; conditions: 0.1 μM, 14 days 3D culture
Experimental: as §5, §6

drug released over 24 hours [4] [%] | Structure (SMILES) | mRNA expression level of COL II compared to control [1] [fold] | COL II mRNA level compared to control system, day 14 [2] [fold] | COL II expression level compared to control system (day not given) [2] [fold] | ACAN expression level on day 14 compared to control system [3] [fold] | ACAN mRNA level on day 14 compared to day 0 [3] [fold] | ACAN mRNA level relative to control system, day 20 ([3]; day 20) | fluorescence intensity of SOX 9 protein [5] | fluorescence intensity of ACAN protein [6] | COL II expression, rank among systems [2] | COL II expression relative to KGN ([2]; day 14) [fold] | COL II expression on day 14 compared to day 0 ([2]; day 14 vs day 0 (3 hours after start of culture)) [fold] | nuclear translocation of CBFβ (nuclear versus cytosolic band intensity, FIG. 8B) [7] | fluorescence intensity of RUNX1 in the nucleus compared to control [8] | SOX 9 expression change [9] | SOX 9 mRNA level, rank among systems [9] | SOX 9 mRNA expression level compared to control system, day 14 [9] [fold] | fluorescence intensity of COL II protein [10]
 | O=C(O)c1ccccc1C(=O)Nc1ccc(-c2ccccc2)cc1 [KGN, kartogenin] | 1.5 | 1.7 | 2.1 | 1.7 | 5 | approximately 3.7 times |  |  |  |  |  |  |  |  |  |  | 
70 | Nc1ccc(S(=O)(=O)c2ccc(N)cc2)cc1 [dapsone] | 1.8 |  | 2.6 |  |  |  |  |  |  |  |  |  |  |  |  |  | 
79 | C#CCC(Cc1cnc2nc(N)nc(N)c2n1)c1ccc(C(=O)N[C@@H](CCC(=O)O)C(=O)O)cc1 (stereo partly shown) [pralatrexate] | 2.1 | 3.9 | 3.5 | 4.3 | 12 |  | highest | highest | highest | 2 | 10 | increased | increased | significantly (p<0.01) increased | highest | 4.2 | highest
79 | COc1cc(Cc2cnc(N)nc2N)cc(OC)c1OC [trimethoprim] | 1.5 | 2.1 | 2.1 | 2.2 | 6 |  |  |  |  |  |  |  |  | significantly (p<0.01) increased |  | 2.9 | 
